Results taken from patent US20240299553A1, “INDOCARBOCYANINE LIPID DERIVATIVES FOR IN VIVO CARGO DELIVERY” (priority 2021, published 2024).

What was measured:
[1] = TLC of liver extracts of mice injected with liposomes; type: in vivo; settings: 24 h and 48 h post-injection of DiI/Cy5-DSPE liposomes
Method: (§1) For extraction using a modified Bligh-Dyer method, 50-100 mg tissue was homogenized as described above, 10 parts of chloroform/methanol (2:1) were added to the homogenate (considering that tissue weight is 1 part), and the samples were mixed at 1400 rpm for 2 h at room temperature on Eppendorf Thermomixer. The tubes were centrifuged at 500 g for 10 min. The organic phase (bottom, approximately 80% of the added amount) was carefully collected, dotted on a PVDF membrane and scanned for DiI and Cy5 fluorescence as described above. Different dilutions of liposomes (standard curve) were scanned together with the samples. The percentage of the injected DiI and Cy5 in the extract was calculated from the standard curve and divided by tissue weight. The fluorescence of control non-injected organs was subtracted from that of injected organs. For TLC analysis, the mobile phase consisted of chloroform: methanol (9:1) with 1% trifluoroacetic acid and the samples were run on TLC Silica Gel 60 F254 plates (EMD Millipore).

[2] = Plasma fluorescence elimination profile after liposome injection; type: in vivo, mice; settings: 24 h post-injection; DiI/Cy5-DSPE liposomes
Method: (§2) 4T1 cell line was purchased from the ATCC and verified using a sequencing core. GL261 cells were obtained from the National Cancer Institute (NCI), and CT2A cells were a gift from Dr. Tom Seyfried (Boston College). LY2 cells were from Dr. Sana Karam, University of Colorado Anschutz Medical campus. Cells were grown at 37° C. in RPMI 1640 medium containing 10% heat-inactivated fetal bovine serum, 10 mM HEPES, 100 U/ml penicillin, and […] streptomycin (all from Corning Inc. New York, NY, USA). BALB/c mice were bred in-house. Mice of 8-10 weeks of age (females) were implanted with 0.5×10^6 cells into the mammary fat pad (4T1) or subcutaneously in the jaw region (LY2) and used for experiments 1 week later when tumors reached ˜200-300 mm^3. For brain tumors, C57BL/6 mice (6-8 weeks old) were implanted with a total 1×10^5 GL261 or CT-2A cells per animal using an established protocol. […]
Tumors and livers were placed in a 24-well plate and scanned as described above. […] Mean fluorescence was determined from 8-bit TIFF images using Fiji software by drawing a region of interest around the tumors and using the “Measure” function to determine mean gray values. […] For plasma fluorescence profile, plasma collected at different time points was serially diluted, dotted on a nitrocellulose membrane, scanned as above, and the mean fluorescence of dots was plotted versus time with Prism.

[3] = Ex vivo fluorescence imaging of excised tumors and livers; type: in vivo, mice
Method: Tumors and livers were placed in a 24-well plate and scanned as described above. To match the intensity of the channels, the same liposomes used for injection were diluted (1:10), dotted on a 0.45 μm nitrocellulose membrane, and scanned together with the samples. Mean fluorescence was determined from 8-bit TIFF images using Fiji software by drawing a region of interest around the tumors and using the “Measure” function to determine mean gray values. Such measurement is independent of the organ cross-section area. The mean gray values of non-injected tumors were subtracted from the measurements. For plasma fluorescence profile, plasma collected at different time points was serially diluted, dotted on a nitrocellulose membrane, scanned as above, and the mean fluorescence of dots was plotted versus time with Prism.

[4] = test system: syngeneic intracranial GL261 glioma; experiment: Confocal microscopy of brain slices of GL261 glioma mice after i.v. dual-labeled liposomes; type: in vivo; settings: 48 h post-injection, EPC/DSPE-PEG2000 liposomes, 0.2% DiI and 0.2% Cy5-DSPE
Method: as §2, with “mm^3.” for “mm^3. For brain tumors, C57BL/6 mice (6-8 weeks old) were implanted with a total 1×10^5 GL261 or CT-2A cells per animal using an established protocol.”
Nikon Eclipse AR1HD inverted confocal microscope with 405 nm, 488 nm, 561 nm, and 640 nm excitation lasers and corresponding emission filters was used. […] For quantification, multiple random image areas from different slices of the tumor (both periphery and center) were acquired at 512×512 resolution. Images were quantified with Fiji using customized macros. Briefly, 8-bit gray image stacks were thresholded for fluorescence in the Cy3 and Cy5 channels and the percentages of binary (positive) areas were calculated using the “Measure” function. […]

[5] = Lipid extraction of tumors and organs, dye biodistribution; type: in vivo, mice; settings: 48 h post-injection
Method: as §1

CCCCCCCCCCCCCCCCCC(=O)OC[C@H](COP(=O)(O)OCCNC(=O)CCCCCN1C(=CC=CC=CC2=[N+](C)c3ccccc3C2(C)C)C(C)(C)c2ccccc21)OC(=O)CCCCCCCCCCCCCCCCC [Cy5-DSPE]
TLC of liver extracts of injected mice [1]: degradation and disappearance
dye cleared from the circulation [2]: approximately 80%
fluorescence in liver images over time ([3]; livers, later time points versus 1 h): decrease
fluorescence in tumor images over time ([3]; tumors, 1 h, 24 h, 48 h post-injection): plateaued at 24 h and dropped at 48 h
accumulation and spreading in glioma [4]: almost complete absence
tissues with the highest dye amount [5]: highest in the tumor and kidney
dye amount in tumor and organ extracts over time ([5]; tumors, livers, spleens, kidneys, 1 h, 24 h): dropped over time in all the organs
